Measured values taken from BindingDB's records for PubMed 38171251 (Indian Institute of Technology (Banaras Hindu University)).

Experiment: Inhibition of Acetyl-CoA acetyltransferase (unknown origin)

Structure (SMILES) | IC50
Cc1ccc(CNC2=Nc3ccccc3NC23CCCCC3)cc1 | 0.269 µM
CC1CCC2(CC1)Nc1ccccc1N=C2NCc1ccccc1Cl (stereo unspecified) | 0.171 µM
CC1CCC2(CC1)NC=CN=C2NCc1ccccc1Cl (stereo unspecified) | > 1 µM

Second part, the molecule after the results:

IC50 | Structure (SMILES)
0.025 µM | Cc1ccccc1CNC1=Nc2ccccc2NC12CCNCC2
0.022 µM | Clc1ccccc1CNC1=Nc2ccccc2NC12CCNCC2
0.022 µM | Clc1cccc(CNC2=Nc3ccccc3NC23CCNCC3)c1
